Measurements from patent US4224448A, “2'-(5'-Nitrofuryl) substituted quinolines” (priority 1966, dated 1980).
≈ marks a conversion by molar mass, not a printed value. Read-outs that look alike come from different tables or passages of the source.

What was measured:
Assay in all cases: Minimum inhibitory concentration, conventional tube dilution method
Format in all cases: cell-based
Candida albicans = settings: fungus, tube dilution, 37 degrees, 24 hours, between 1 and 6 strains, mg/100 cc, decimal comma, read-out: Minimal Inhibitory Concentration, Cand. Alb.
Excerpt: (§1) The activity of some of the new nitrofuryl quinoline derivatives of the present invention is exemplified in Table 1 against a gram-positive (Staph. aureus), a gram-negative (Salmonella) bacterium and a fungus (Candida albicans). Table 1 indicates the minimum inhibitory concentration of the compound under reference in mg/100 cc required in order to inhibit the growth between 1 and 6 strains of each type. The measurements have been carried out by the conventional tube dilution method at 37 degrees after 24 hours.

Salmonella = settings: read-out: Minimal Inhibitory Concentration, Salm.
Excerpt: as §1

Staph. aureus = settings: Staphylococcus aureus; gram-positive; tube dilution, 37 degrees, 24 hours; between 1 and 6 strains; mg/100 cc; decimal comma; read-out: Minimal Inhibitory Concentration, Staph. aureus
Excerpt: as §1

[1] = gram-negative, tube dilution, 37 degrees, 24 hours, between 1 and 6 strains, mg/100 cc, decimal comma

Row | Compound | MIC (Candida albicans) [µg/mL] | MIC (Salmonella; [1]) [µg/mL] | MIC (Staph. aureus) [µg/mL] | MIC (Salmonella; 24 h) [µg/mL]
1 | O=[N+]([O-])c1ccc(-c2cc[n+]([O-])c3ccccc23)o1 [O H H NF H H H H] | 0.5 (≈ 1.95 µM) | 5 (≈ 19.5 µM) | 0.1 to 0.5 (≈ 0.39 to 1.95 µM) | –
2 | Cc1ccc2c(-c3ccc([N+](=O)[O-])o3)cc(C(=O)O)[n+]([O-])c2c1 [O COOH H NF H H CH3 H, 2-carboxy-4-[2'-(5'-nitrofuryl)]-7-methyl quinoline N-oxide] | 50 (≈ 159 µM) | – | 0.5 (≈ 1.59 µM) | –
3 | CCN(CC)C(=O)c1cc(-c2ccc([N+](=O)[O-])o2)c2ccccc2n1 [CON(C2 H5)2 H NF H H H H, 4-[2'-(5'-nitrofuryl)]quinoline-2-carboxylic acid diethylamide] | > 50 | > 50 | 0.5 to 1 (≈ 1.47 to 2.95 µM) | –
4 | CCc1ccc2c(c1)c(-c1ccc([N+](=O)[O-])o1)cc(C)[n+]2[O-] [O CH3 H NF H C2 H5 H H] | 2 to 5 (≈ 6.7 to 16.8 µM) | 25 (≈ 83.8 µM) | 0.5 (≈ 1.68 µM) | –
5 | Cc1cc(-c2ccc([N+](=O)[O-])o2)c2ccccc2n1 [CH3 H NF H H H H, 2-methyl-4-[2'-(5'-nitrofuryl)] quinoline] | 5 (≈ 19.7 µM) | 5 (≈ 19.7 µM) | 0.1 to 1 (≈ 0.393 to 3.93 µM) | –
6 | CCc1cc(-c2ccc([N+](=O)[O-])o2)c2ccc(OC)cc2[n+]1[O-] [O C2 H5 H NF H H OCH3 H] | > 50 | – | 0.01 to 0.5 (≈ 0.0318 to 1.59 µM) | –
7 | CCc1cc(-c2ccc([N+](=O)[O-])o2)c2cc(C)ccc2n1 [C2 H5 H NF H CH3 H H, 2-ethyl-4-[2'-(5'-nitrofuryl)]-6-methyl quinoline] | < 5 | – | – | > 10
8 | CCc1cc(-c2ccc([N+](=O)[O-])o2)c2ccc(C)cc2[n+]1[O-] [O C2 H5 H NF H H CH3 H] | < 5 | 25 to 50 (≈ 83.8 to 168 µM) | 0.5 (≈ 1.68 µM) | –
9 | Cc1cc(-c2ccc([N+](=O)[O-])o2)c2cccc(C)c2n1 [CH3 H NF H H H CH3, 2,8-dimethyl-4-[2'-(5'-nitrofuryl)]quinoline] | 5 (≈ 18.6 µM) | > 50 | 0.3 (≈ 1.12 µM) | –
10 | O=[N+]([O-])c1ccc(-c2cc(C(Br)(Br)Br)nc3ccccc23)o1 [CBr3 H NF H H H H, 2-tribromomethyl-4-[2'-(5'-nitrofuryl)]quinoline] | 30 to 50 (≈ 61.1 to 102 µM) | 10 (≈ 20.4 µM) | 0.5 (≈ 1.02 µM) | –
11 | CC(=O)Oc1ccc2c(-c3ccc([N+](=O)[O-])o3)cc(C)[n+]([O-])c2c1 [O CH3 H NF H H OCOCH3 H] | 50 (≈ 152 µM) | 5 (≈ 15.2 µM) | – | –
12 | CCc1cc(-c2ccc([N+](=O)[O-])o2)c2ccccc2[n+]1[O-] [O C2 H5 H NF H H H H] | 3 (≈ 10.6 µM) | 25 to 50 (≈ 87.9 to 176 µM) | 0.3 (≈ 1.06 µM) | –
13 | CCOc1ccc2c(-c3ccc([N+](=O)[O-])o3)cc(C)nc2c1 [CH3 H NF H H OC2 H5 H, 2-methyl-4-[2'-(5'-nitrofuryl)]-7-ethoxy quinoline] | 25 (≈ 83.8 µM) | 5 (≈ 16.8 µM) | 0.1 (≈ 0.335 µM) | –
14 | O=[N+]([O-])c1ccc(-c2cc(C=NO)[n+]([O-])c3ccccc23)o1 [O CHNOH H NF H H H H] | 0.5 (≈ 1.67 µM) | 1 to 5 (≈ 3.34 to 16.7 µM) | – | –
15 | CCc1cc(-c2ccc([N+](=O)[O-])o2)c2ccc(O)cc2[n+]1[O-] [O C2 H5 H NF H H OH H] | 25 (≈ 83.3 µM) | 5 (≈ 16.7 µM) | – | –
16 | Cc1cc(-c2ccc([N+](=O)[O-])o2)c2ccccc2[n+]1[O-] [O CH3 H NF H H H H, 2-methyl-4-[2'-(5'-nitrofuryl)] quinoline N-oxide] | 1 (≈ 3.7 µM) | 10 (≈ 37 µM) | 0.2 to 0.5 (≈ 0.74 to 1.85 µM) | –
17 | Cc1cc(-c2ccc([N+](=O)[O-])o2)c2ccc(NC(=O)C(F)(F)F)c(C)c2n1 [CH3 H NF H H NHCOCF3 CH3] | > 50 | > 50 | 0.5 (≈ 1.32 µM) | –
18 | CCOc1ccc2c(-c3ccc([N+](=O)[O-])o3)cc(C)[n+]([O-])c2c1 [O CH3 H NF H H OC2 H5 H] | 10 (≈ 31.8 µM) | 10 to 50 (≈ 31.8 to 159 µM) | 0.05 to 0.1 (≈ 0.159 to 0.318 µM) | –
19 | CCc1ccc2nc(CC)cc(-c3ccc([N+](=O)[O-])o3)c2c1 [C2 H5 H NF H C2 H5 H H, 2-ethyl-4-[2'-(5'-nitrofuryl)]-6-ethyl quinoline] | > 50 | > 10 | – | –
20 | CCc1cc(-c2ccc([N+](=O)[O-])o2)c2ccc(OC)cc2n1 [C2 H5 H 5NF H H OCH3 H] | 10 (≈ 33.5 µM) | 25 (≈ 83.8 µM) | 0.01 to 0.5 (≈ 0.0335 to 1.68 µM) | –
21 | Cc1ccc2c(c1)c(-c1ccc([N+](=O)[O-])o1)cc(C)[n+]2[O-] [O CH3 H NF H CH3 H H] | 2 to 5 (≈ 7.04 to 17.6 µM) | > 25 | 0.1 (≈ 0.352 µM) | –
22 | CCCCOc1ccc2c(-c3ccc([N+](=O)[O-])o3)cc(C)[n+]([O-])c2c1 [O CH3 H NF H H OC4 H9 H] | > 10 | – | 0.5 to 1 (≈ 1.46 to 2.92 µM) | –
23 | CCc1cccc2c(-c3ccc([N+](=O)[O-])o3)cc(C)nc12 [CH3 H NF H H H C2 H5] | 100 (≈ 354 µM) | > 50 | – | –
24 | COc1ccc2c(-c3ccc([N+](=O)[O-])o3)cc(C)nc2c1 [CH3 H NF H H OCH3 H, 2-methyl-4-[2'-(5'-nitrofuryl)]-7-methoxy quinoline] | 5 (≈ 17.6 µM) | 10 (≈ 35.2 µM) | – | –

Row | Compound | MIC (Candida albicans) [µg/mL] | MIC (Salmonella; [1]) [µg/mL] | MIC (Staph. aureus) [µg/mL] | MIC (Salmonella; 24 h) [µg/mL]
25 | CCOc1ccc2c(-c3ccc([N+](=O)[O-])o3)cc(C=NO)nc2c1 [CHNOH H NF H H OC2 H5 H] | 50 (≈ 153 µM) | > 50 | – | –
26 | O=[N+]([O-])c1ccc(-c2ccc3ccccc3[n+]2[O-])o1 [O NF H H H H H H] | < 5 | – | 0.5 (≈ 1.95 µM) | –
27 | COc1cc2c(cc1N)c(-c1ccc([N+](=O)[O-])o1)cc(C)[n+]2[O-] [O CH3 H NF H NH2 OCH3 H] | > 50 | 50 (≈ 159 µM) | – | –
28 | CC(=O)Oc1ccc2c(-c3ccc([N+](=O)[O-])o3)cc(C)nc2c1 [CH3 H NF H H OCOCH3 H] | 10 (≈ 32 µM) | 2 (≈ 6.4 µM) | – | –
29 | CCOC(=O)c1cc(-c2ccc([N+](=O)[O-])o2)c2ccccc2n1 [COOC2 H5 H NF H H H H, 2-carbethoxy-4-[2'-(5'-nitrofuryl)]quinoline] | > 50 | > 50 | – | –
30 | Cc1cc(-c2ccc([N+](=O)[O-])o2)c2ccc(N)c(C)c2n1 [CH3 H NF H H NH2 CH3] | 5 (≈ 17.6 µM) | – | – | 1 to 5 (≈ 3.53 to 17.6 µM)
31 | O=[N+]([O-])c1ccc(-c2cc(C=NNCCO)nc3ccccc23)o1 [drawing 9 H NF H H H H] | 25 (≈ 76.6 µM) | 5 (≈ 15.3 µM) | – | –
32 | CC(=O)OCc1cc(-c2ccc([N+](=O)[O-])o2)c2ccccc2n1 [CH2 OCOCH3 H NF H H H H, 2-acetoxymethyl-4-[2'-(5'-nitrofuryl)]quinoline] | 5 (≈ 16 µM) | > 50 | – | –
33 | CCc1ccc2nc(C(C)C)cc(-c3ccc([N+](=O)[O-])o3)c2c1 [CH(CH3)2 H 5NF H C2 H5 H H, 2-isopropyl-4-[2'-(5'-nitrofuryl)]-6-ethyl quinoline] | 50 (≈ 161 µM) | – | 0.5 (≈ 1.61 µM) | –
34 | Cc1cc(-c2ccc([N+](=O)[O-])o2)c2ccc(O)cc2[n+]1[O-] [O CH3 H NF H H OH H, 2-Methyl-4-[2'-(5'-nitrofuryl)]-7-hydroxy quinoline N-oxide] | 100 (≈ 349 µM) | 5 to 10 (≈ 17.5 to 34.9 µM) | – | –
35 | COc1cc2c(-c3ccc([N+](=O)[O-])o3)cc(C)[n+]([O-])c2cc1OC [O CH3 H NF H OCH3 OCH3 H] | > 50 | > 50 | – | –
36 | CC(=O)OCc1cc(-c2ccc([N+](=O)[O-])o2)c2ccc(OC(C)=O)cc2n1 [CH2 OCOCH3 H NF H H OCOCH3 H, 2-acetoxymethyl-4-[2'-(5'-nitrofuryl)]-7-acetoxy quinoline] | 50 to 100 (≈ 135 to 270 µM) | 10 to 25 (≈ 27 to 67.5 µM) | – | –
37 | CCCCOc1ccc2c(-c3ccc([N+](=O)[O-])o3)cc(C)nc2c1 [CH3 H 5NF H H OC4 H9 H, 2-methyl-4-[2'-(5'-nitrofuryl)]-7-n-butoxy quinoline] | > 50 | – | 0.5 (≈ 1.53 µM) | –
38 | COc1cc2c(cc1NC(C)=O)c(-c1ccc([N+](=O)[O-])o1)cc(C)[n+]2[O-] [O CH3 H NF H NHCOCH3 OCH3 H] | 50 (≈ 140 µM) | 10 to 25 (≈ 28 to 70 µM) | – | –
39 | Cc1ccc2c(-c3ccc([N+](=O)[O-])o3)cc(C)[n+]([O-])c2c1 [O CH3 H NF H H CH3 H] | 5 (≈ 17.6 µM) | > 50 | – | –
40 | O=C1OCCN1N=Cc1cc(-c2ccc([N+](=O)[O-])o2)c2ccccc2n1 [drawing 10 H NF H H H H] | 5 (≈ 14.2 µM) | – | 0.1 to 0.5 (≈ 0.284 to 1.42 µM) | –
41 | CNN=Cc1cc(-c2ccc([N+](=O)[O-])o2)c2ccccc2n1 [drawing 7 H NF H H H H] | 10 to 25 (≈ 33.8 to 84.4 µM) | 1 to 5 (≈ 3.38 to 16.9 µM) | – | –
42 | CCc1cc(-c2ccc([N+](=O)[O-])o2)c2cc(C)ccc2[n+]1[O-] [O C2 H5 H NF H CH3 H H] | < 5 | – | 0.1 (≈ 0.335 µM) | –
43 | COc1cc2nc(C)cc(-c3ccc([N+](=O)[O-])o3)c2cc1N [CH3 H NF H NH2 OCH3 H, 2-methyl-4-[2'-(5'-nitrofuryl)]-6-amino-7-methoxy-quinoline] | 5 (≈ 16.7 µM) | 1 to 5 (≈ 3.34 to 16.7 µM) | – | –
44 | NC(=O)NN=Cc1cc(-c2ccc([N+](=O)[O-])o2)c2ccccc2n1 [drawing 8 H NF H H H H] | 25 to 50 (≈ 76.9 to 154 µM) | 5 (≈ 15.4 µM) | – | –
45 | CC(=O)c1cc(-c2ccc([N+](=O)[O-])o2)c2ccccc2n1 [COCH3 H NF H H H H, 4-[2'-(5'-nitrofuryl)]quinoline-2-methyl ketone] | > 50 | > 50 | – | –
46 | O=[N+]([O-])c1ccc(-c2cc(C=NO)nc3ccccc23)o1 [CHNOH H NF H H H H, 4-[2'-(5'-nitrofuryl)]quinoline-2-carboxaldehyde oxime] | 10 (≈ 35.3 µM) | 5 (≈ 17.7 µM) | – | –
47 | COc1cc2nc(C)cc(-c3ccc([N+](=O)[O-])o3)c2cc1NC(C)=O [CH3 H NF H NHCOCH3 OCH3 H, 2-methyl-4-[2'-(5'-nitrofuryl)]-6-acetylamino-7-methoxy-quinoline] | 50 (≈ 146 µM) | > 50 | – | –
